Measurements published in ChEMBL document CHEMBL5724914, “Linking interpersonal differences in gut microbiota composition and drug biotransformation activity” (2024).

Legend:
[1] = The drug is tested on Z-028 corresponding to mouse gut metagenome with ENA study accession number: PRJEB37062 and ENA sample accession number: ERS12561827 for biotransformation under anaerobic condition. The drug concentrations were measured over 9 timepoints collected between 0 and 24 hours of incubation by liquid-chromatography-coupled mass spectrometry (LC–MS); conditions: 2 µM
[2] = The drug is tested on WLS-310 corresponding to human gut metagenome with ENA study accession number: PRJEB37062 and ENA sample accession number: ERS12561785 for biotransformation under anaerobic condition. The drug concentrations were measured over 9 timepoints collected between 0 and 24 hours of incubation by liquid-chromatography-coupled mass spectrometry (LC–MS); conditions: 2 µM
[3] = human gut metagenome, 24 h, 2 µM
[4] = The drug is tested on Z-003 corresponding to pig gut metagenome with ENA study accession number: PRJEB37062 and ENA sample accession number: ERS12561803 for biotransformation under anaerobic condition. The drug concentrations were measured over 9 timepoints collected between 0 and 24 hours of incubation by liquid-chromatography-coupled mass spectrometry (LC–MS); conditions: 2 µM
[5] = human gut metagenome, 24 h, 2 µM; remark: listed apart in the source
[6] = human gut metagenome, 24 h, 2 µM; remark: listed apart in the source
[7] = The drug is tested on Z-006 corresponding to mouse gut metagenome with ENA study accession number: PRJEB37062 and ENA sample accession number: ERS12561806 for biotransformation under anaerobic condition. The drug concentrations were measured over 9 timepoints collected between 0 and 24 hours of incubation by liquid-chromatography-coupled mass spectrometry (LC–MS); conditions: 2 µM
[8] = human gut metagenome, 24 h, 2 µM; remark: listed apart in the source
[9] = human gut metagenome, 24 h, 2 µM; remark: listed apart in the source
[10] = The drug is tested on WLS-240 corresponding to human gut metagenome with ENA study accession number: PRJEB37062 and ENA sample accession number: ERS12561773 for biotransformation under anaerobic condition. The drug concentrations were measured over 9 timepoints collected between 0 and 24 hours of incubation by liquid-chromatography-coupled mass spectrometry (LC–MS); conditions: 2 µM
[11] = human gut metagenome, 24 h, 2 µM; remark: listed apart in the source
[12] = The drug is tested on Z-012 corresponding to metagenome with ENA study accession number: PRJEB37062 and ENA sample accession number: ERS12561812 for biotransformation under anaerobic condition. The drug concentrations were measured over 9 timepoints collected between 0 and 24 hours of incubation by liquid-chromatography-coupled mass spectrometry (LC–MS); conditions: 2 µM
[13] = human gut metagenome, 24 h, 2 µM; remark: listed apart in the source
[14] = human gut metagenome, 24 h, 2 µM; remark: listed apart in the source
[15] = human gut metagenome, 24 h, 2 µM; remark: listed apart in the source
[16] = human gut metagenome, 24 h, 2 µM; remark: listed apart in the source
[17] = human gut metagenome, 24 h, 2 µM; remark: listed apart in the source
[18] = human gut metagenome, 24 h, 2 µM; remark: listed apart in the source
[19] = The drug is tested on Z-017 corresponding to mouse gut metagenome with ENA study accession number: PRJEB37062 and ENA sample accession number: ERS12561816 for biotransformation under anaerobic condition. The drug concentrations were measured over 9 timepoints collected between 0 and 24 hours of incubation by liquid-chromatography-coupled mass spectrometry (LC–MS); conditions: 2 µM
[20] = The drug is tested on Z-026 corresponding to metagenome with ENA study accession number: PRJEB37062 and ENA sample accession number: ERS12561825 for biotransformation under anaerobic condition. The drug concentrations were measured over 9 timepoints collected between 0 and 24 hours of incubation by liquid-chromatography-coupled mass spectrometry (LC–MS); conditions: 2 µM
Also: call rule not given here.

| SMILES | Bacterial Biotransformation [1] | Bacterial Biotransformation [2] | Bacterial Biotransformation [3] | Bacterial Biotransformation [4] | Bacterial Biotransformation [5] | Bacterial Biotransformation [6] | Bacterial Biotransformation [7] | Bacterial Biotransformation [8] | Bacterial Biotransformation [9] | Bacterial Biotransformation [10] | Bacterial Biotransformation [11] | Bacterial Biotransformation [12] | Bacterial Biotransformation [13] | Bacterial Biotransformation [14] | Bacterial Biotransformation [15] | Bacterial Biotransformation [16] | Bacterial Biotransformation [17] | Bacterial Biotransformation [18] | Bacterial Biotransformation [19] | Bacterial Biotransformation [20] |
| --- | --- | --- | --- | --- | --- | --- | --- | --- | --- | --- | --- | --- | --- | --- | --- | --- | --- | --- | --- | --- |
| COc1ccc2c(c1OC)C(=O)O[C@@H]2[C@H]1c2c(cc3c(c2OC)OCO3)CCN1C [NOSCAPINE] | Compound NOT metabolized | Compound metabolized | Compound metabolized | Compound metabolized | Compound NOT metabolized | Compound NOT metabolized | Compound NOT metabolized | Compound NOT metabolized | Compound NOT metabolized | Compound metabolized | Compound NOT metabolized | Compound NOT metabolized | Compound metabolized | Compound NOT metabolized | Compound NOT metabolized | Compound metabolized | Compound metabolized | Compound NOT metabolized | Compound NOT metabolized | Compound NOT metabolized |
| CCCc1nc(C(C)(C)O)c(C(=O)OCc2oc(=O)oc2C)n1Cc1ccc(-c2ccccc2-c2nnn[nH]2)cc1 [OLMESARTAN MEDOXOMIL] | Compound NOT metabolized | Compound metabolized | Compound metabolized | Compound metabolized | Compound metabolized | Compound metabolized | Compound metabolized | Compound metabolized | Compound metabolized | Compound NOT metabolized | Compound metabolized | Compound metabolized | Compound NOT metabolized | Compound metabolized | Compound metabolized | Compound metabolized | Compound metabolized | Compound NOT metabolized | Compound metabolized | Compound NOT metabolized |
| NC(=O)N1c2ccccc2CC(=O)c2ccccc21 [OXCARBAZEPINE] | Compound NOT metabolized | Compound NOT metabolized | Compound NOT metabolized | Compound metabolized | Compound NOT metabolized | Compound NOT metabolized | Compound NOT metabolized | Compound NOT metabolized | Compound NOT metabolized | Compound NOT metabolized | Compound NOT metabolized | Compound NOT metabolized | Compound NOT metabolized | Compound metabolized | Compound NOT metabolized | Compound NOT metabolized | Compound NOT metabolized | Compound NOT metabolized | Compound NOT metabolized | Compound NOT metabolized |
| CCN(CC)CC#CCOC(=O)C(O)(c1ccccc1)C1CCCCC1.Cl (stereo not given) [OXYBUTYNIN CHLORIDE] | Compound NOT metabolized | Compound metabolized | Compound NOT metabolized | Compound metabolized | Compound metabolized | Compound metabolized | Compound NOT metabolized | Compound metabolized | Compound metabolized | Compound metabolized | Compound NOT metabolized | Compound metabolized | Compound metabolized | Compound metabolized | Compound metabolized | Compound metabolized | Compound metabolized | Compound metabolized | Compound NOT metabolized | Compound NOT metabolized |
| Fc1ccc([C@@H]2CCNC[C@H]2COc2ccc3c(c2)OCO3)cc1 [PAROXETINE] | Compound NOT metabolized | Compound metabolized | Compound metabolized | Compound metabolized | Compound metabolized | Compound NOT metabolized | Compound NOT metabolized | Compound metabolized | Compound NOT metabolized | Compound metabolized | Compound NOT metabolized | Compound NOT metabolized | Compound metabolized | Compound metabolized | Compound NOT metabolized | Compound metabolized | Compound metabolized | Compound NOT metabolized | Compound NOT metabolized | Compound NOT metabolized |
